Here are results for 28 compounds from US10590113B2, “6-hydroxy-4-oxo-1,4-dihydropyrimidine-5-carboxamides as APJ agonists” (priority 2016, dated 2020).

In one assay the target is T1, human APJ receptor (Homo sapiens, UniProt P35414).
T1 construct: expressed in transfected cells; host or cells: HEK293
T1 sequence (P35414 1-380): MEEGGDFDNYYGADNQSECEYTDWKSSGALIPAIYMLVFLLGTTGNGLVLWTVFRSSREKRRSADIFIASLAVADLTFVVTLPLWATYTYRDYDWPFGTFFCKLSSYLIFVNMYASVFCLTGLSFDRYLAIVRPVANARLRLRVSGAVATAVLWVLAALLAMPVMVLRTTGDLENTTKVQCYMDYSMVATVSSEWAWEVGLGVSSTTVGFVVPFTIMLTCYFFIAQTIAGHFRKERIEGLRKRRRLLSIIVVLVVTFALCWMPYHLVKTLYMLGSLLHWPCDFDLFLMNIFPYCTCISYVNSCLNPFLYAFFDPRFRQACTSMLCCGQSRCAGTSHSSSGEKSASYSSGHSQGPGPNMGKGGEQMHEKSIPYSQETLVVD
The experiment in a line: Intracellular cAMP Accumulation Assay (APJ hcAMP, HTRF). The class given is cell-based.
Conditions: not given
The procedure, abridged:
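Stably transfected HEK293 cells (5,000/well) incubated 30 min at room temperature with serially diluted compound, […] and 2 μM forskolin. cAMP measured by HTRF after 60 min with detection reagents, quantified against a cAMP standard curve; EC50 from variable-slope sigmoidal fit of inhibition of forskolin-stimulated cAMP.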
A general note: Time-resolved FRET reads energy transfer from a long-lived donor to a nearby acceptor.
The EC50 is the concentration at which the effect is half-maximal. `C=CCCc1nc(=O)c(C(=O)N2CC[C@@H](c3ccccc3)C2)c(O)n1-c1c(OC)cccc1OC` [Example 16, (S)-2-(but-3-en-1-yl)-3-(2,6-dimethoxyphenyl)-6-hydroxy-5-(3-phenylpyrrolidine-1-carbonyl)pyrimidin-4(3H)-one] displayed an EC50 of 0.01 to 10 nM.

In the case of `CCOCc1nc(=O)c(C(=O)N2CC[C@H](c3ccccc3)C2)c(O)n1-c1c(OC)cccc1OC` [Example 23, (R)-1-(2,6-dimethoxyphenyl)-2-(ethoxymethyl)-6-hydroxy-5-(3-phenylpyrrolidine-1-carbonyl)pyrimidin-4(1H)-one], the EC50 was in the range of 0.01 to 10 nM.

The compound `C=CCCc1nc(=O)c(C(=O)N2CC[C@H](c3ccccc3)C2)c(O)n1-c1c(OC)cccc1OC` [Example 27, (R)-2-(but-3-en-1-yl)-3-(2,6-dimethoxyphenyl)-6-hydroxy-5-(3-phenylpyrrolidine-1-carbonyl)pyrimidin-4(3H)-one] had a concentration for a half-maximal effect (EC50) of 0.01 to 10 nM.

Take `CCOCc1nc(=O)c(C(=O)N2CC[C@@H](c3ccccc3)C2)c(O)n1-c1c(OC)cccc1OC` [Example 29, (S)-1-(2,6-dimethoxyphenyl)-2-(ethoxymethyl)-6-hydroxy-5-(3-phenylpyrrolidine-1-carbonyl)pyrimidin-4(1H)-one]: the EC50 is 0.01 to 10 nM.

Staying with this assay, now noted: HEK293 cells stably expressing human APJ receptor; inhibition of forskolin-mediated cAMP production; read-out: Human APJ cAMP EC50 potency range.
Regarding `COc1cccc(OC)c1-n1c(CCC2CC2)nc(=O)c(C(=O)N2CC[C@@H](c3ccccc3)C2)c1O` [Example 4, (S)-2-(2-Cyclopropylethyl)-1-(2,6-dimethoxyphenyl)-6-hydroxy-5-(3-phenylpyrrolidine-1-carbonyl)pyrimidin-4(1H)-one], the EC50 was in the range of 0.01 to 10 nM.

Regarding `COc1ccccc1C1CCN(C(=O)c2c(O)n(-c3c(OC)cccc3OC)c(-c3cncc(C)c3)nc2=O)C1` (stereo not shown) [Example 7, 1-(2,6-dimethoxyphenyl)-6-hydroxy-5-(3-(2-methoxyphenyl)pyrrolidine-1-carbonyl)-2-(5-methylpyridin-3-yl)pyrimidin-4(1H)-one], the EC50 is 0.01 to 10 nM.

Staying with this assay, now noted: human APJ, intracellular cAMP accumulation; read-out: hAPJ cAMP EC50 Potency range.
Consider `COc1cccc(OC)c1-n1c(COC(C)C)nc(=O)c(C(=O)N2CC[C@H](c3ccccc3)C2)c1O` [Example 12, (R)-1-(2,6-dimethoxyphenyl)-6-hydroxy-2-(isopropoxymethyl)-5-(3-phenylpyrrolidine-1-carbonyl)pyrimidin-4(1H)-one], for which the EC50 is 0.01 to 10 nM.

In the case of `COc1cccc(OC)c1-n1c(CCC(C)C)nc(=O)c(C(=O)N2CC[C@H](c3ccccc3)C2)c1O` [Example 14, (R)-1-(2,6-dimethoxyphenyl)-6-hydroxy-2-isopentyl-5-(3-phenylpyrrolidine-1-carbonyl)pyrimidin-4(1H)-one], the 50% effective concentration (EC50) was in the range of 0.01 to 10 nM.

Regarding `COc1cccc(OC)c1-n1c(COC2CC2)nc(=O)c(C(=O)N2CCC(c3cccc(F)c3)C2)c1O` (stereo not shown) [Example 15, 2-(cyclopropoxymethyl)-1-(2,6-dimethoxyphenyl)-5-(3-(3-fluorophenyl)pyrrolidine-1-carbonyl)-6-hydroxypyrimidin-4(1H)-one], the EC50 lay in the range of 0.01 to 10 nM.

Take `CCc1cccc(CC)c1-n1c(COC(C)C)nc(=O)c(C(=O)N2CC[C@H](c3ccccc3)C2)c1O` [Example 17, (R)-3-(2,6-diethylphenyl)-6-hydroxy-2-(isopropoxymethyl)-5-(3-phenylpyrrolidine-1-carbonyl)pyrimidin-4(3H)-one]: the EC50 was in the range of 0.01 to 10 nM.

On to `COc1cccc(OC)c1-n1c(CCC(C)C)nc(=O)c(C(=O)N2CC[C@@H](c3ccccc3)C2)c1O` [Example 24, (S)-1-(2,6-dimethoxyphenyl)-6-hydroxy-2-isopentyl-5-(3-phenylpyrrolidine-1-carbonyl)pyrimidin-4(1H)-one], for which the EC50 fell in the range of 0.01 to 10 nM.

`COc1cccc(OC)c1-n1c(CC2CC2)nc(=O)c(C(=O)N2CC[C@@H](c3ccccc3)C2)c1O` [Example 31, (S)-2-(cyclopropylmethyl)-3-(2,6-dimethoxyphenyl)-6-hydroxy-5-(3-phenylpyrrolidine-1-carbonyl)pyrimidin-4(3H)-one]: the EC50 fell in the range of 0.01 to 10 nM.

For `COc1cccc(OC)c1-n1c(CC2CC2)nc(=O)c(C(=O)N2CC[C@H](c3ccccc3)C2)c1O` [Example 32, (R)-2-(cyclopropylmethyl)-3-(2,6-dimethoxyphenyl)-6-hydroxy-5-(3-phenylpyrrolidine-1-carbonyl)pyrimidin-4(3H)-one], the EC50 was 0.01 to 10 nM.

Regarding `C=CCCc1nc(=O)c(C(=O)N2CC[C@H](c3ccccc3)C2)c(O)n1-c1c(C)cccc1OC` [Example 35, (R)-2-(but-3-en-1-yl)-6-hydroxy-3-(2-methoxy-6-methylphenyl)-5-(3-phenylpyrrolidine-1-carbonyl)pyrimidin-4(3H)-one], the EC50 lay within 0.01 to 10 nM.

Turning to `COc1cccc(OC)c1-n1c(COC(C)(C)C)nc(=O)c(C(=O)N2CCC(c3ccc(F)cc3)C2)c1O` (stereo not shown) [Example 44, 2-[(tert-butoxy)methyl]-1-(2,6-dimethoxyphenyl)-5-[3-(4-fluorophenyl)pyrrolidine-1-carbonyl]-6-hydroxy-1,4-dihydropyrimidin-4-one], the EC50 is 0.01 to 10 nM.

With `COc1cccc(OC)c1-n1c(COC(C)(C)C)nc(=O)c(C(=O)N2CC[C@H](c3ccccc3)C2)c1O` [Example 51, 2-[(tert-butoxy)methyl]-1-(2,6-dimethoxyphenyl)-6-hydroxy-5-[(3R)-3-phenylpyrrolidine-1-carbonyl]-1,4-dihydropyrimidin-4-one], the EC50 was in the range of 0.01 to 10 nM.

On to `CCCCc1nc(=O)c(C(=O)N2Cc3ccc(F)cc3C2)c(O)n1-c1c(OC)cccc1OC` [Example 56, 2-butyl-1-(2,6-dimethoxyphenyl)-5-(5-fluoro-2,3-dihydro-1H-isoindole-2-carbonyl)-6-hydroxy-1,4-dihydropyrimidin-4-one], for which the EC50 lay within 0.01 to 10 nM.

For the compound `CCCCc1nc(=O)c(C(=O)N2CC[C@H](NC(=O)OCc3ccccc3)C2)c(O)n1-c1c(OC)cccc1OC` [Example 58, benzyl N-[(3S)-1-[2-butyl-1-(2,6-dimethoxyphenyl)-6-hydroxy-4-oxo-1,4-dihydropyrimidine-5-carbonyl]pyrrolidin-3-yl]carbamate], the EC50 was 10 to 100 nM.

Turning to `CCCCc1nc(=O)c(C(=O)N2CC[C@@H](OCc3ccccc3)C2)c(O)n1-c1c(OC)cccc1OC` [Example 59, 5-[(3R)-3-(benzyloxy)pyrrolidine-1-carbonyl]-2-butyl-1-(2,6-dimethoxyphenyl)-6-hydroxy-1,4-dihydropyrimidin-4-one], the EC50 lay in the range of 0.01 to 10 nM.

In the case of `CCCCc1nc(=O)c(C(=O)N2Cc3ccncc3C2)c(O)n1-c1c(OC)cccc1OC` [Example 60, 2-butyl-1-(2,6-dimethoxyphenyl)-6-hydroxy-5-{1H,2H,3H-pyrrolo[3,4-c]pyridine-2-carbonyl}-1,4-dihydropyrimidin-4-one], the EC50 was 10 to 100 nM.

With `CCCCc1nc(=O)c(C(=O)N2Cc3cccnc3C2)c(O)n1-c1c(OC)cccc1OC` [Example 61, 2-butyl-1-(2,6-dimethoxyphenyl)-6-hydroxy-5-{5H,6H,7H-pyrrolo[3,4-b]pyridine-6-carbonyl}-1,4-dihydropyrimidin-4-one], the EC50 fell in the range of 10 to 100 nM.

On to `CCCCc1nc(=O)c(C(=O)N2CC[C@@H](NC(=O)OCc3ccccc3)C2)c(O)n1-c1c(OC)cccc1OC` [Example 62, benzyl N-[(3R)-1-[2-butyl-1-(2,6-dimethoxyphenyl)-6-hydroxy-4-oxo-1,4-dihydropyrimidine-5-carbonyl]pyrro1idin-3-yl]carbamate], for which the concentration for a half-maximal effect (EC50) lay within 10 to 100 nM.

`CCCCc1nc(=O)c(C(=O)N2CC[C@H](OCc3ccccc3)C2)c(O)n1-c1c(OC)cccc1OC` [Example 63, 5-[(3S)-3-(benzyloxy)pyrrolidine-1-carbonyl]-2-butyl-1-(2,6-dimethoxyphenyl)-6-hydroxy-1,4-dihydropyrimidin-4-one]: the EC50 fell in the range of 0.01 to 10 nM.

For `CCCCc1nc(=O)c(C(=O)N2CC[C@H](OCc3ccccn3)C2)c(O)n1-c1c(OC)cccc1OC` [Example 64, 2-butyl-1-(2,6-dimethoxyphenyl)-6-hydroxy-5-[(3S)-3-[(pyridin-2-yl)methoxy]pyrrolidine-1-carbonyl]-1,4-dihydropyrimidin-4-one], the EC50 lay within 0.01 to 10 nM.

Regarding `CCCCc1nc(=O)c(C(=O)N2Cc3ccc(C#N)cc3C2)c(O)n1-c1c(OC)cccc1OC` [Example 65, 2-[2-butyl-1-(2,6-dimethoxyphenyl)-6-hydroxy-4-oxo-1,4-dihydropyrimidine-5-carbonyl]-2,3-dihydro-1H-isoindole-5-carbonitrile], the EC50 lay in the range of 0.01 to 10 nM.

For the compound `CCCCc1nc(=O)c(C(=O)N2Cc3ccccc3C2)c(O)n1-c1c(OC)cccc1OC` [Example 66, 2-butyl-5-(2,3-dihydro-1H-isoindole-2-carbonyl)-1-(2,6-dimethoxyphenyl)-6-hydroxy-1,4-dihydropyrimidin-4-one], the EC50 fell in the range of 0.01 to 10 nM.

Consider `CCCCc1nc(=O)c(C(=O)N2CCN(Cc3cccc(F)c3)CC2)c(O)n1-c1c(OC)cccc1OC` [Example 69, 2-butyl-1-(2,6-dimethoxyphenyl)-5-{4-[(3-fluorophenyl)methyl]piper-azine-1-carbonyl}-6-hydroxy-1,4-dihydropyrimidin-4-one], for which the EC50 lay in the range of 0.01 to 10 nM.

As for `CCCCc1nc(=O)c(C(=O)N2CCC(c3ccncc3)CC2)c(O)n1-c1c(OC)cccc1OC` [Example 71, 2-butyl-1-(2,6-dimethoxyphenyl)-6-hydroxy-5-[4-(pyridin-4-yl)piperidine-1-carbonyl]-1,4-dihydropyrimidin-4-one], the EC50 was 0.01 to 10 nM.
